Here are results for 25 molecules from US9873696B2, “Neprilysin inhibitors” (THERAVANCE BIOPHARMA R&D IP, LLC, priority 2010, dated 2018).

In general, Ki refers to the dissociation constant of the complex between target and ligand, obtained from inhibition or displacement.

The test has as its target T1, human NEP (Homo sapiens, UniProt P08473).
T1 construct: purchased R&D Systems, Minneapolis, Minn; 1182-ZN
Briefly: In vitro enzyme inhibition assay at human NEP (Assay 1). The test is classed as biochemical. As to conditions: recombinant enzyme, fluorogenic peptide substrate, 37° C. How it is done: In Vitro Assays for the Quantitation of Inhibitor Potencies (IC50) at Human and Rat NEP, and Human ACE
The inhibitory activities of compounds at human and rat neprilysin (EC 3.4.24.11; NEP) and human angiotensin converting enzyme (ACE) were determined using in vitro assays as described below.
Recombinant human NEP and recombinant human ACE were obtained commercially (R&D Systems, Minneapolis, Minn., catalog numbers 1182-ZN and 929-ZN, respectively). The fluorogenic peptide substrate Mca-D-Arg-Arg-Leu-Dap-(Dnp)-OH (Medeiros et al. (1997) Braz. J. Med. Biol. Res. 30:1157-62; Anaspec, San Jose, Calif.) and Abz-Phe-Arg-Lys(Dnp)-Pro-OH (Araujo et al. (2000) Biochemistry 39:8519-8525; Bachem, Torrance, Calif.) were used in the NEP and ACE assays respectively.
The assays were performed in 384-well white opaque plates at 37° C. using the fluorogenic peptide substrates at a concentration of 10 μM in Assay Buffer (NEP: 50 mM HEPES, pH 7.5, 100 mM NaCl, 0.01% polyethylene glycol sorbitan monolaurate (Tween-20), 10 μM ZnSO4; ACE: 50 mM HEPES, pH 7.5, 100 mM NaCl, 0.01% Tween-20, 1 μM ZnSO4).
Test compounds were assayed over the range of concentrations from […] to 20 μM. Test compounds were added to the enzymes and incubated for 30 minute at 37° C. prior to initiating the reaction by the addition of substrate. Reactions were terminated after 20 minutes of incubation at 37° C. by the addition of glacial acetic acid to a final concentration of 3.6% (v/v).
Plates were read on a fluorometer with excitation and emission wavelengths set to 320 nm and 405 nm, respectively. Inhibition constants were obtained by nonlinear regression of the data using the equation (GraphPad Software, Inc., San Diego, Calif.): v=v0/[1+(I/K′)] where v is the reaction rate, v0 is the uninhibited reaction rate, I is the inhibitor concentration and K′ is the apparent inhibition constant.
Compounds of the invention were tested in this assay and found to have pKi values at human NEP as follows.

T1 sequence (P08473 whole entry): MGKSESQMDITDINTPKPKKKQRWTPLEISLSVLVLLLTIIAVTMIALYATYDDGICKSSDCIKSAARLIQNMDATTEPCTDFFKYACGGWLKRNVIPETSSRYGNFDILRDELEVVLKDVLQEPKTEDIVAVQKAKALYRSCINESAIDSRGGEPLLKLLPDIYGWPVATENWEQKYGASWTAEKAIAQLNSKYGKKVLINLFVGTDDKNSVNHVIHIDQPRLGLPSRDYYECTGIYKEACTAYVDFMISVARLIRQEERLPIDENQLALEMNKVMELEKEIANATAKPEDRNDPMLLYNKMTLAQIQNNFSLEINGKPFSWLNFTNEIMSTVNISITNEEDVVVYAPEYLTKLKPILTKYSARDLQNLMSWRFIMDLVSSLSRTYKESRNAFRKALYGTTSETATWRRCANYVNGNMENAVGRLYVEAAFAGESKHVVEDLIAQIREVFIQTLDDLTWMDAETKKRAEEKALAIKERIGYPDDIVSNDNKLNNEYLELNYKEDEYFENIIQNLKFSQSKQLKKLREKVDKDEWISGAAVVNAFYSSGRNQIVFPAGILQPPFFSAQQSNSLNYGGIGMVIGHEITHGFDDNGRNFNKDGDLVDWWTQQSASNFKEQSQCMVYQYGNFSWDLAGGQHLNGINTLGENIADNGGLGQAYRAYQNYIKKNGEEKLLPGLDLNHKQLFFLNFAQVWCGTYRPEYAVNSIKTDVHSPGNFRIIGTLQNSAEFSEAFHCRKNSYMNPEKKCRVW

In the case of `O=C(NN(Cc1ccc(-c2ccccc2)cc1)C[C@@H](O)C(=O)O)c1cnn[nH]1` [Example 2-21, (R)-3-[N-Biphenyl-4-ylmethyl-N′-(3H-[1,2,3]triazole-4-carbonyl)hydrazino]-2-hydroxypropionic acid], the Ki is 12.6 to 100 nM.

`O=C(NN(Cc1ccc(-c2ccccc2)cc1)C[C@H](O)C(=O)O)c1cnc2[nH]nnc2c1` [Example 2-22, (S)-3-[N-Biphenyl-4-ylmethyl-N′-(3H-[1,2,3]triazolo[4,5-b]pyridine-6-carbonyl)hydrazino]-2-hydroxypropionic acid]: the inhibition constant (Ki) was 126 to 1000 nM.

Consider `O=C(NN(Cc1ccc(-c2ccccc2)cc1)C[C@@H](O)C(=O)O)c1cc(F)c2[nH]nnc2c1` [Example 2-23, (R)-3-[N-Biphenyl-4-ylmethyl-N′-(7-fluoro-1H-benzotriazole-5-carbonyl)-hydrazino]-2-hydroxypropionic acid], for which the Ki is 126 to 1000 nM.

In the case of `O=C(NN(Cc1ccc(-c2ccccc2)cc1)C[C@H](O)C(=O)O)c1cc(F)c2[nH]nnc2c1` [Example 2-24, (S)-3-[N-Biphenyl-4-ylmethyl-N′-(7-fluoro-1H-benzotriazole-5-carbonyl)-hydrazino]-2-hydroxypropionic acid], the Ki was 126 to 1000 nM.

For `O=C(NN(Cc1ccc(-c2ccccc2)cc1)C[C@H](O)C(=O)O)c1cc(Cl)c2[nH]nnc2c1` [Example 2-25, (S)-3-[N-Biphenyl-4-ylmethyl-N′-(7-chloro-1H-benzotriazole-5-carbonyl)-hydrazino]-2-hydroxypropionic acid], the Ki was 126 to 1000 nM.

With `O=C(NN(Cc1ccc(-c2cccc(Cl)c2)cc1)C[C@@H](O)C(=O)O)c1cc(O)no1` [Example 3B, (R)-3-[N-(3′-Chlorobiphenyl-4-ylmethyl)-N′-(3-hydroxyisoxazole-5-carbonyl)-hydrazino]-2-hydroxypropionic Acid], the Ki is at most 1 nM.

`O=C(NN(Cc1ccc(-c2cccc(Cl)c2)cc1)C[C@H](O)C(=O)O)c1cc(O)no1` [Example 3K, (S)-3-[N-(3′-Chloro-biphenyl-4-ylmethyl)-N′-(3-hydroxyisoxazole-5-carbonyl)-hydrazino]-2-hydrox-propionic Acid]: the Ki was at most 1 nM.

Consider `O=C(NN(Cc1ccc(-c2cccc(Cl)c2)cc1)C[C@@H](O)C(=O)O)c1nc(Cl)n[nH]1` [Example 4-1, (R)-3-[N-(3′-Chlorobiphenyl-4-ylmethyl)-N′-(5-chloro-2H-[1,2,4]triazole-3-carbonyl)-hydrazino]-2-hydroxy-propionic acid], for which the Ki is 1.26 to 10 nM.

As to `O=C(NN(Cc1ccc(-c2cccc(Cl)c2)cc1)C[C@@H](O)C(=O)O)c1nc(O)n[nH]1` [Example 4-2, (R)-3-[N-(3′-Chlorobiphenyl-4-ylmethyl)-N′-(5-hydroxy-2H-[1,2,4]triazole-3-carbonyl)-hydrazino]-2-hydroxy-propionic acid], the inhibitory constant (Ki) is 1.26 to 10 nM.

For the molecule `O=C(NN(Cc1ccc(-c2cccc(Cl)c2)cc1)C[C@@H](O)C(=O)O)c1cnn[nH]1` [Example 4-3, (R)-3-[N-(3′-Chlorobiphenyl-4-ylmethyl)-N′-(3H-[1,2,3]triazole-4-carbonyl)-hydrazino]-2-hydroxy-propionic acid], the Ki is 1.26 to 10 nM.

With `O=C(NN(Cc1ccc(-c2cccc(Cl)c2)cc1)C[C@@H](O)C(=O)O)c1cn(O)nn1` [Example 4-4, (R)-3-[N-(3′-Chlorobiphenyl-4-ylmethyl)-N′-(1-hydroxy-1H-[1,2,3]triazole-4-carbonyl)-hydrazino]-2-hydroxy-propionic acid], the Ki was at most 1 nM.

`O=C(NN(Cc1ccc(-c2cccc(Cl)c2)cc1)C[C@@H](O)C(=O)O)c1nnn[nH]1` [Example 4-5, (R)-3-[N-(3′-Chlorobiphenyl-4-ylmethyl)-N′-(1H-tetrazole-5-carbonyl)-hydrazino]-2-hydroxy-propionic acid]: the Ki was at most 1 nM.

Regarding `O=C(NN(Cc1ccc(-c2cccc(Cl)c2)cc1)C[C@@H](O)C(=O)O)c1cc(-c2cccnc2)[nH]n1` [Example 4-9, (R)-3-[N-(3′-Chlorobiphenyl-4-ylmethyl)-N′-(5-pyridin-3-yl-1H-pyrazole-3-carbonyl)-hydrazino]-2-hydroxy-propionic acid], the inhibitory constant (Ki) is 1.26 to 10 nM.

Regarding `O=C(NN(Cc1ccc(-c2cccc(Cl)c2)cc1)C[C@@H](O)C(=O)O)c1cc(C2CC2)[nH]n1` [Example 4-10, (R)-3-[N-(3′-Chlorobiphenyl-4-ylmethyl)-N′-(5-cyclopropyl-1H-pyrazole-3-carbonyl)-hydrazino]-2-hydroxy-propionic acid], the Ki is 1.26 to 10 nM.

Turning to `O=C(NN(Cc1ccc(-c2cccc(Cl)c2)cc1)C[C@@H](O)C(=O)O)c1cc(C(=O)N2CCCC2)n[nH]1` [Example 4-11, (R)-3-{N-(3′-Chlorobiphenyl-4-ylmethyl)-N′-[5-(pyrrolidine-1-carbonyl)-2H-pyrazole-3-carbonyl]-hydrazino}-2-hydroxy-propionic acid], the Ki is at most 1 nM.

Consider `O=C(NN(Cc1ccc(-c2cccc(Cl)c2)cc1)C[C@@H](O)C(=O)O)c1cc(C(=O)N2CCC2)n[nH]1` [Example 4-12, (R)-3-[N′-[5-(Azetidine-1-carbonyl)-2H-pyrazole-3-carbonyl]-N-(3′-chlorobiphenyl-4-ylmethyl)-hydrazino]-2-hydroxy-propionic acid], for which the Ki was at most 1 nM.

In the case of `CN(C)C(=O)c1cc(C(=O)NN(Cc2ccc(-c3cccc(Cl)c3)cc2)C[C@@H](O)C(=O)O)[nH]n1` [Example 4-13, (R)-3-[N-(3′-Chlorobiphenyl-4-ylmethyl)-N′-(5-dimethylcarbamoyl-2H-pyrazole-3-carbonyl)-hydrazino]-2-hydroxy-propionic acid], the Ki is at most 1 nM.

`O=C(NN(Cc1ccc(-c2cccc(Cl)c2)cc1)C[C@@H](O)C(=O)O)c1cc(C(=O)N2CC[C@@H](O)C2)n[nH]1` [Example 4-14, (R)-3-{N-(3′-Chlorobiphenyl-4-ylmethyl)-N′-[5-((R)-3-hydroxy-pyrrolidine-1-carbonyl)-2H-pyrazole-3-carbonyl]-hydrazino}-2-hydroxy-propionic acid]: the Ki is at most 1 nM.

With `O=C(NN(Cc1ccc(-c2cccc(Cl)c2)cc1)C[C@@H](O)C(=O)O)c1cc(-c2ccccc2Cl)n[nH]1` [Example 4-15, (R)-3-{N-(3′-Chlorobiphenyl-4-ylmethyl)-N′-[5-(2-chlorophenyl)-2H-pyrazole-3-carbonyl]-hydrazino}-2-hydroxy-propionic acid], the Ki is at most 1 nM.

For `CC(C)CN(C)C(=O)c1cc(C(=O)NN(Cc2ccc(-c3cccc(Cl)c3)cc2)C[C@@H](O)C(=O)O)[nH]n1` [Example 4-16, (R)-3-{N-(3′-Chlorobiphenyl-4-ylmethyl)-N′-[5-(isobutyl-methyl-carbamoyl)-2H-pyrazole-3-carbonyl]-hydrazino}-2-hydroxy-propionic acid], the Ki was at most 1 nM.

Consider `CN(CC1CC1)C(=O)c1cc(C(=O)NN(Cc2ccc(-c3cccc(Cl)c3)cc2)C[C@@H](O)C(=O)O)[nH]n1` [Example 4-17, (R)-3-{N-(3′-Chlorobiphenyl-4-ylmethyl)-N′-[5-(cyclopropylmethyl-methyl-carbamoyl)-2H-pyrazole-3-carbonyl]-hydrazino}-2-hydroxy-propionic acid], for which the Ki is at most 1 nM.

As for `O=C(NN(Cc1ccc(-c2cccc(Cl)c2)cc1)C[C@@H](O)C(=O)O)c1cc(C(=O)N2CC(F)C2)n[nH]1` [Example 4-18, (R)-3-{N-(3′-Chlorobiphenyl-4-ylmethyl)-N′-[5-(3-fluoroazetidine-1-carbonyl)-2H-pyrazole-3-carbonyl]-hydrazino}-2-hydroxy-propionic acid], the Ki is at most 1 nM.

For `O=C(NN(Cc1ccc(-c2cccc(Cl)c2)cc1)C[C@@H](O)C(=O)O)c1cc(-c2ccccc2O)n[nH]1` [Example 4-19, (R)-3-{N-(3′-Chlorobiphenyl-4-ylmethyl)-N′-[5-(2-hydroxy-phenyl)-2H-pyrazole-3-carbonyl]-hydrazino}-2-hydroxy-propionic acid], the Ki was 1.26 to 10 nM.

As to `COc1ccccc1-c1cc(C(=O)NN(Cc2ccc(-c3cccc(Cl)c3)cc2)C[C@@H](O)C(=O)O)[nH]n1` [Example 4-20, (R)-3-{N-(3′-Chlorobiphenyl-4-ylmethyl)-N′-[5-(2-methoxy-phenyl)-2H-pyrazole-3-carbonyl]-hydrazino}-2-hydroxy-propionic acid], the Ki was 1.26 to 10 nM.

On to `O=C(NN(Cc1ccc(-c2cccc(Cl)c2)cc1)C[C@@H](O)C(=O)O)c1cc(-c2ccccn2)n[nH]1` [Example 4-21, (R)-3-[N-(3′-Chlorobiphenyl-4-ylmethyl)-N′-(5-pyridin-2-yl-2H-pyrazole-3-carbonyl)-hydrazino]-2-hydroxy-propionic acid], for which the Ki is 1.26 to 10 nM.
